The target in test [1] is recombinant Plk1 (Homo sapiens, UniProt P53350). The test is described as follows: In Vitro Plk1 Enzyme Assay (SPA, GST-Cdc25C phosphorylation). Type of test: biochemical. The settings on record: ATP 64 nM, 90 minutes, read-out: IC50 (Plk1 enzyme inhibition).
The test system of test [2] is human colon tumour cell line HT29. The test is described as follows: Cellular Assay (phosphohistone H3 Ser10 mitotic marker, HT29). In kind it is cell-based. The settings on record: HT-29, 24 h, HT29 cells, read-out: IC50 (cellular assay, phosphohistone H3).
Procedure: Chromosome condensation in mitosis is accompanied by phosphorylation of histone H3 on serine 10.
After 24 hours, cells were fixed in 3.7% (v/v) formaldehyde then permeabilised and blocked for 10 minutes in 100 μl 0.5% (v/v) Triton X-100, 1% (w/v) bovine serum albumin (BSA) in phosphate buffered saline (PBS). […] The raw assay data were analysed by non-linear regression analysis and used to determine an IC50 value for each compound.

Sequence of recombinant Plk1 (P53350 whole entry): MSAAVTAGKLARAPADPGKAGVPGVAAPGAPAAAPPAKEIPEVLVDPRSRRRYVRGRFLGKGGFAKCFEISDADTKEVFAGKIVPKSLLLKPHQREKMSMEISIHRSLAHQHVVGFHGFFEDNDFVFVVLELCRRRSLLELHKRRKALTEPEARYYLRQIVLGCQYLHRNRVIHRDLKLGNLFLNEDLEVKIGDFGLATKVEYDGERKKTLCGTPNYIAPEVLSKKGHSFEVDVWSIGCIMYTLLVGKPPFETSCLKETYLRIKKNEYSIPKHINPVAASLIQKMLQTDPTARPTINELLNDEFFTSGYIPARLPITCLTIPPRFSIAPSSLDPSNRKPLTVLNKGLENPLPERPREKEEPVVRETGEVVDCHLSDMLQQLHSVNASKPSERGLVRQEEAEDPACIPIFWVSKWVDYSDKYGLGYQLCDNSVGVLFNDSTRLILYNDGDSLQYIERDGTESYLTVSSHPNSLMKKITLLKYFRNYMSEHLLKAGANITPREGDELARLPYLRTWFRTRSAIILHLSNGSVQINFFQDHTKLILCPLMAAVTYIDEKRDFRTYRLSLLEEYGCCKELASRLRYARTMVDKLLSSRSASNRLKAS

Turning to `COc1cc(C(=O)NC2CCN(C3CC3)CC2)ccc1Nc1ncc2c(n1)N(C1CCCC1)CCC(=O)N2C` [Example 11, 4-[(6-cyclopentyl-2-methyl-3-oxo-2,6,8,10-tetrazabicyclo[5.4.0]undeca-8,10,12-trien-9-yl)amino]-N-(1-cyclopropyl-4-piperidyl)-3-methoxy-benzamide], the IC50 in test [1] and in test [2] was less than 300 nM throughout.

As for `COc1cc(OC2CCN(C)C2)ccc1Nc1ncc2c(n1)N(C1CCCC1)CCC(=O)N2C` (stereo not drawn) [Example 114, 6-cyclopentyl-9-[[2-methoxy-4-(1-methylpyrrolidin-3-yl)oxy-phenyl]amino]-2-methyl-2,6,8,10-tetrazabicyclo[5.4.0]undeca-8,10,12-trien-3-one], the IC50 in test [1] is less than 300 nM; in test [2] it was less than 1000 nM.

Regarding `COc1cc(C(=O)NCCCN(C)C)ccc1Nc1ncc2c(n1)N(C1CCCCC1)CC1(CC1)C(=O)N2C` [Example 431, 4-(9′-cyclohexyl-5′-methyl-6′-oxo-5′,6′,8′,9′-tetrahydrospiro[cyclopropane-1,7′-pyrimido[5,4-b][1,4]diazepine]-2′-ylamino)-N-(3-dimethylaminopropyl)-3-methoxy-benzamide], the IC50 in test [1] and in test [2] was less than 300 nM each time.

Turning to `COc1cc(C(=O)N[C@H]2CCNC2)ccc1Nc1ncc2c(n1)N(C1CCCC1)CCC(=O)N2C` [Example 56, 4-[(6-cyclopentyl-2-methyl-3-oxo-2,6,8,10-tetrazabicyclo[5.4.0]undeca-8,10,12-trien-9-yl)amino]-3-methoxy-N-[(3S)-pyrrolidin-3-yl]benzamide], the IC50 was less than 300 nM in test [1] and less than 1000 nM in test [2].

On to `CN1C(=O)CCN(C2CCCC2)c2nc(Nc3ccc(C(=O)NC4CCCCC4)cc3)ncc21` [Example 89, N-cyclohexyl-4-[(6-cyclopentyl-2-methyl-3-oxo-2,6,8,10-tetrazabicyclo[5.4.0]undeca-8,10,12-trien-9-yl)amino]benzamide], for which the IC50 in test [1] is less than 1000 nM; in test [2], less than 30000 nM.

Regarding `CCN1CCC(NC(=O)c2ccc(Nc3ncc4c(n3)N(C3CCCC3)CC3(CC3)C(=O)N4C)c(Cl)c2)CC1` [Example 382, 3-chloro-4-(9′-cyclopentyl-5′-methyl-6′-oxo-5′,6′,8′,9′-tetrahydrospiro[cyclopropane-1,7′-pyrimido[5,4-b][1,4]diazepine]-2′-ylamino)-N-(1-ethylpiperidin-4-yl)benzamide], the IC50 in test [1] and in test [2] was less than 300 nM each time.

Turning to `Cc1cc(C(=O)NC2CCN(C)CC2)ccc1Nc1ncc2c(n1)N(C1CCCC1)CCC(=O)N2C` [Example 193, 4-[(6-cyclopentyl-2-methyl-3-oxo-2,6,8,10-tetrazabicyclo[5.4.0]undeca-8,10,12-trien-9-yl)amino]-3-methyl-N-(1-methyl-4-piperidyl)benzamide], the IC50 in test [1] and in test [2] was less than 300 nM each time.

Turning to `CCN(CC)C1CCC(NC(=O)c2ccc(Nc3ncc4c(n3)N(C3CCCC3)CCC(=O)N4C)c(OC)c2)CC1` (stereo not drawn) [Example 58, 4-[(6-cyclopentyl-2-methyl-3-oxo-2,6,8,10-tetrazabicyclo[5.4.0]undeca-8,10,12-trien-9-yl)amino]-N-(4-diethylaminocyclohexyl)-3-methoxy-benzamide], the IC50 in test [1] and in test [2] was less than 300 nM in each case.

For `COc1cc(C(=O)NC2CCC2)ccc1Nc1ncc2c(n1)N(C1CCCC1)CCC(=O)N2C` [Example 98, N-cyclobutyl-4-[(6-cyclopentyl-2-methyl-3-oxo-2,6,8,10-tetrazabicyclo[5.4.0]undeca-8,10,12-trien-9-yl)amino]-3-methoxy-benzamide], the IC50 is less than 1000 nM in test [1] and less than 300 nM in test [2].

In the case of `CCN(CC)CCNC(=O)c1ccc(Nc2ncc3c(n2)N(C2CCCC2)CCC(=O)N3C)c(OC)c1` [Example 18, 4-[(6-cyclopentyl-2-methyl-3-oxo-2,6,8,10-tetrazabicyclo[5.4.0]undeca-8,10,12-trien-9-yl)amino]-N-(2-diethylaminoethyl)-3-methoxy-benzamide], the IC50 in test [1] and in test [2] was less than 300 nM each time.

On to `CN(C)CCCNC(=O)c1ccc(Nc2ncc3c(n2)N(C2CCCC2)CCC(=O)N3C)c(Cl)c1` [Example 317, 3-chloro-4-[(2-cyclopentyl-6-methyl-5-oxo-2,6,9,11-tetrazabicyclo[5.4.0]undeca-7,9,11-trien-10-yl)amino]-N-(3-dimethylaminopropyl)benzamide], for which the IC50 in test [1] and in test [2] was less than 300 nM throughout.

Turning to `CCN1CCC(=O)N(C)c2cnc(Nc3ccc(C(=O)NC4CCN(C)CC4)cc3OC)nc21` [Example 210, 4-[(6-ethyl-2-methyl-3-oxo-2,6,8,10-tetrazabicyclo[5.4.0]undeca-7,9,11-trien-9-yl)amino]-3-methoxy-N-(1-methyl-4-piperidyl)benzamide], the IC50 in test [1] and in test [2] was less than 300 nM throughout.

With `CCOc1cc(C(=O)NC2CCN(C)CC2)ccc1Nc1ncc2c(n1)N(C1CCCC1)CCC(=O)N2C` [Example 200, 4-[(6-cyclopentyl-2-methyl-3-oxo-2,6,8,10-tetrazabicyclo[5.4.0]undeca-8,10,12-trien-9-yl)amino]-3-ethoxy-N-(1-methyl-4-piperidyl)benzamide], the values for the concentration for half-maximal inhibition (IC50) in test [1] and in test [2] were less than 1000 nM and less than 300 nM, respectively.

On to `COc1cc(C(=O)NCc2ccncc2)ccc1Nc1ncc2c(n1)N(C1CCCC1)CCC(=O)N2C` [Example 80, 4-[(6-cyclopentyl-2-methyl-3-oxo-2,6,8,10-tetrazabicyclo[5.4.0]undeca-8,10,12-trien-9-yl)amino]-3-methoxy-N-(pyridin-4-ylmethyl)benzamide], for which the figures for the 50% inhibitory concentration (IC50) in test [1] and in test [2] were less than 1000 nM and less than 300 nM, respectively.

On to `COc1cc(C(=O)NC(C)CN2CCCCC2)ccc1Nc1ncc2c(n1)N(C1CCCC1)CCC(=O)N2C` (stereo not drawn) [Example 73, 4-[(6-cyclopentyl-2-methyl-3-oxo-2,6,8,10-tetrazabicyclo[5.4.0]undeca-8,10,12-trien-9-yl)amino]-3-methoxy-N-[1-(1-piperidyl)propan-2-yl]benzamide], for which the IC50 in test [1] and in test [2] was less than 300 nM throughout.

As for `CCN1CCC(NC(=O)c2ccc(Nc3ncc4c(n3)N(C3CCCC3)CCC(=O)N4C)c(OC)c2)CC1` [Example 61, 4-[(6-cyclopentyl-2-methyl-3-oxo-2,6,8,10-tetrazabicyclo[5.4.0]undeca-8,10,12-trien-9-yl)amino]-N-(1-ethyl-4-piperidyl)-3-methoxy-benzamide], the IC50 in test [1] and in test [2] was less than 300 nM in each case.

In the case of `O=C1CCN(C2CCCC2)c2nc(Nc3ccc(C(=O)NCCN4CCOCC4)cc3Cl)ncc2N1` [Example 257, 3-chloro-4-[(6-cyclopentyl-3-oxo-2,6,8,10-tetrazabicyclo[5.4.0]undeca-8,10,12-trien-9-yl)amino]-N-(2-morpholin-4-ylethyl)benzamide], the IC50 in test [1] is less than 100000 nM; in test [2], less than 30000 nM.

With `CC(C)N1CCC(=O)N(C)c2cnc(Nc3ccc(C(=O)NCCN4CCOCC4)cc3)nc21` [Example 218, 4-[(2-methyl-3-oxo-6-propan-2-yl-2,6,8,10-tetrazabicyclo[5.4.0]undeca-7,9,11-trien-9-yl)amino]-N-(2-morpholin-4-ylethyl)benzamide], the values for the IC50 in test [1] and in test [2] were less than 300 nM and less than 30000 nM, respectively.

On to `CN1C(=O)CCN(C2CCCC2)c2nc(Nc3cccc(CO)c3)ncc21` [Example 173, 6-cyclopentyl-9-[[3-(hydroxymethyl)phenyl]amino]-2-methyl-2,6,8,10-tetrazabicyclo[5.4.0]undeca-8,10,12-trien-3-one], for which the IC50 in test [1] was less than 1000 nM; in test [2], less than 30000 nM.

Consider `CN1CCC(NC(=O)c2ccc(Nc3ncc4c(n3)N(C3CCCC3)CCC(=O)N4C)nc2)CC1` [Example 269, 6-[(6-cyclopentyl-2-methyl-3-oxo-2,6,8,10-tetrazabicyclo[5.4.0]undeca-8,10,12-trien-9-yl)amino]-N-(1-methyl-4-piperidyl)pyridine-3-carboxamide], for which the IC50 in test [1] was less than 300 nM; in test [2], less than 1000 nM.

Consider `COc1cc(C(=O)NCCCCN2CCCC2)ccc1Nc1ncc2c(n1)N(C1CCCC1)CCC(=O)N2C` [Example 33, 4-[(6-cyclopentyl-2-methyl-3-oxo-2,6,8,10-tetrazabicyclo[5.4.0]undeca-8,10,12-trien-9-yl)amino]-3-methoxy-N-(4-pyrrolidin-1-ylbutyl)benzamide], for which the IC50 in test [1] and in test [2] was less than 300 nM throughout.

`COc1cc(C(=O)NC2CCCCC2)ccc1Nc1ncc2c(n1)N(C1CCN(C)CC1)CCC(=O)N2C` [Example 233, N-cyclohexyl-3-methoxy-4-[[2-methyl-6-(1-methyl-4-piperidyl)-3-oxo-2,6,8,10-tetrazabicyclo[5.4.0]undeca-7,9,11-trien-9-yl]amino]benzamide]: the IC50 is less than 1000 nM in test [1] and less than 30000 nM in test [2].

On to `COCCN1CCC(NC(=O)c2ccc(Nc3ncc4c(n3)N(C3CCCC3)CC(C)(C)C(=O)N4C)c(OC)c2)CC1` [Example 244, 4-[(2-cyclopentyl-4,4,6-trimethyl-5-oxo-2,6,9,11-tetrazabicyclo[5.4.0]undeca-7,9,11-trien-10-yl)amino]-3-methoxy-N-[1-(2-methoxyethyl)-4-piperidyl]benzamide], for which the IC50 in test [1] is less than 1000 nM; in test [2], less than 300 nM.

Regarding `COc1cc(C(=O)NCc2ccccc2)ccc1Nc1ncc2c(n1)N(C1CCCC1)CCC(=O)N2C` [Example 96, N-benzyl-4-[(6-cyclopentyl-2-methyl-3-oxo-2,6,8,10-tetrazabicyclo[5.4.0]undeca-8,10,12-trien-9-yl)amino]-3-methoxy-benzamide], the IC50 in test [1] was less than 100000 nM; in test [2] it was less than 300 nM.

Broadly, the IC50 is the point on the concentration scale where inhibition reaches its midpoint.

For the origin of these results see US7709471B2, “Compounds” (AstraZeneca AB, priority 2006, dated 2010).
